Test results reported in patent US8138118B2, “Use of hydroxyaromatics as safeners” (Bayer CropScience AG, priority 2003, dated 2012).

What was measured:
Format in all cases: in vivo
[1] = tested on: Zea mays (corn), cv. 'Lorenzo'; assay: Post-emergence application of herbicide and safener by the tank mix method, crop damage; details: for Safener action as % damage reduction in crop plants: ZEAMA, safener 250 g a.i./ha + herbicide H2 40 g a.i./ha; for % damage in ZEAMA: four weeks
Description: (§1) Seeds of various crop plants and weed species were sown in sandy loam soil in round plastic pots of a diameter of 13 cm and covered with a layer of sandy loam of a thickness of about 1 cm. The pots were placed in a greenhouse under favorable growth conditions for a period of about two to three weeks, allowing the plants to reach a growth stage of 2 to 4 leaves. The herbicides in the form of liquid (for example emulsion concentrates) or dry (for example water-dispersible powders) formulations were mixed with a standard additive (based on rapeseed oil methyl ester), diluted with deionized water to the required concentrations and applied to the green parts of the plants and the uncovered part of the soil surface with a spray bar using a water application rate of 300 liters per hectare. In the experiment shown below, safener and the herbicide foramsulfuron were in each case used as 20 percent strength water-dispersible powder (results see table 1.2.1). The pots were placed in a greenhouse under favorable growth conditions. Visual scoring of the herbicidal action was carried out four weeks after the herbicide application. Evaluation was carried out on a percentage basis by comparison with untreated control plants (0%=no noticeable effect compared with the untreated plant, 100%=treated plant dies).

[2] = tested on: Zea mays (corn), cv. 'Lorenzo'; assay: Post-emergence application of herbicide after seed dressing with safener, crop damage; details: for Safener action as % damage reduction in crop plants: ZEAMA; for % damage in ZEAMA: four weeks
Method: The number of crop plant seeds required for each application rate of safener was calculated. Sufficient seeds were weighed out into glass bottles having a screw-on lid. The volume of the glass bottles was approximately twice that of the seeds weighed out. The safeners were formulated as 20 percent strength water-dispersible powders. These formulations were weighed out to give the required application rates (g of a.i./kg of seed). The samples were added to the seed in the glass containers, and sufficient water to form a suitable seed dressing was then added. The glass bottles were closed and then mounted in an overhead shaker (which turns the bottles at moderate speed for a period of up to one hour) so that the seeds were uniformly covered with the seed dressing. The bottles were opened and the seed was ready for use in pre-emergence or post-emergence experiments, as described below. The seeds treated with safener and untreated seeds were sown in sandy loam soil in round plastic pots of a diameter of 13 cm and covered with a layer of sandy loam of a thickness of about 1 cm. The pots were placed in a greenhouse under favorable growth conditions for a period of about two to three weeks, allowing the plants to reach a growth stage of 2 to 4 leaves. The herbicides in the form of liquid (for example emulsion concentrates) or dry (for example water-dispersible powders) formulations were mixed with a standard additive (based on rapeseed oil methyl ester), diluted with deionized water to the required concentrations and applied to the green parts of the plants and the uncovered part of the soil surface with a spray bar using a water application rate of 300 liters per hectare. In the experiment shown below, the herbicide foramsulfuron was used as 20 percent strength water-dispersible powder (results see table 2.3.1). The pots were placed in a greenhouse under favorable growth conditions. Visual scoring of the herbicidal action was carried out four weeks after the herbicide application. Evaluation was carried out on a percentage base by comparison with untreated control plants (0%=no noticeable effect compared with the untreated plant, 100%=treated plant dies).

Setaria viridis [3] = assay: Pre-emergence application of herbicide and safener by the tank mix method, herbicidal action on weed; details: four weeks
Method: (§2) Seeds of various crop plants and weed species were sown in sandy loam soil in round plastic pots of a diameter of 13 cm and covered with a layer of sandy loam of a thickness of about 1 cm. Herbicides and safeners in the form of liquid (for example emulsion concentrates) or dry (for example water-dispersible powders) formulations were diluted with deionized water to the required concentration and applied to the surface of the soil with a spray bar using a water application rate of 300 liters per hectare. In the experiment shown below, the safeners were used as 20 percent strength water-dispersible powders and the herbicide isoxaflutole was used as an aqueous suspension concentrate (see table 1.1.1). The pots were placed in a greenhouse under favorable growth conditions. Visual scoring of the herbicidal action was carried out four weeks after the herbicide application. Evaluation was carried out on a percentage basis by comparison with untreated control plants (0%=no noticeable effect compared with the untreated plant, 100%=treated plant dies).

Chenopodium album = assay: as above; details: four weeks
Method: as §2

[4] = tested on: Glycine max (soybean), cv. 'Lambert'; assay: Pre-emergence application of herbicide after seed dressing with safener, crop damage; details: for Safener action as % damage reduction in crop plants: GLXMA; for % damage in GLXMA: four weeks
Method: (§3) The number of crop plant seeds required for each application rate of safener was calculated. Sufficient seeds were weighed out into glass bottles having a screw-on lid. The volume of the glass bottles was approximately twice that of the seeds weighed out. The safeners were formulated as 20 percent strength water-dispersible powders. These formulations were weighed out to give the required application rates (g of a.i./kg of seed). The samples were added to the seed in the glass containers, and sufficient water to form a suitable seed dressing was then added. The glass bottles were closed and then mounted in an overhead shaker (which turns the bottles at moderate speed for a period of up to one hour) so that the seeds were uniformly covered with the seed dressing. The bottles were opened and the seed was ready for use in pre-emergence or post-emergence experiments, as described below. The seeds which had been treated with safener and untreated seeds as controls were sown in sandy loam soil in round plastic pots of a diameter of 13 cm and covered with a layer of sandy loam of a thickness of about 1 cm. The herbicides in the form of liquid (for example emulsion concentrates) or dry (for example water-dispersible powders) formulations were diluted with deionized water to the required concentrations and applied to the surface of the soil with a spray bar using a water application rate of 300 liters per hectare. In the two experiments shown below (results see tables 2.2.1 and 2.2.2), the herbicide isoxaflutole was used as an aqueous suspension concentrate. The pots were placed in a greenhouse under favorable growth conditions. Visual scoring of the herbicidal action was carried out four weeks after the herbicide application. Evaluation was carried out on a percentage basis by comparison with untreated control plants (0%=no noticeable effect compared with the untreated plant, […]).

[5] = tested on: Zea mays (corn), cv. 'Lorenzo'; assay: as above; details: for Safener action as % damage reduction in crop plants: ZEAMA; for % damage in ZEAMA: four weeks
Method: as §3

[6] = tested on: Zea mays (corn), cv. 'Lorenzo'; assay: Pre-emergence application of herbicide and safener by the tank mix method, crop damage; details: for Safener action as % damage reduction in crop plants: ZEAMA, safener 250 g a.i./ha + herbicide H1 100 g a.i./ha
Method: as §2

Setaria viridis [7] = assay: Post-emergence application of herbicide and safener by the tank mix method, herbicidal action on weed; details: four weeks
Description: as §1

Amaranthus retroflexus = assay: as above; details: four weeks
Description: as §1

[8] = safener 250 g a.i./ha + herbicide H2 (foramsulfuron) 40 g a.i./ha, post-emergence tank mix
[9] = seed dressing with safener 1 g a.i./kg of seed, herbicide H2 40 g a.i./ha post-emergence
[10] = seed dressing with safener 1 g a.i./kg of seed, then herbicide H2 40 g a.i./ha post-emergence
[11] = safener 250 g a.i./ha + herbicide H1 100 g a.i./ha, pre-emergence tank mix
[12] = seed dressing with safener 1 g a.i./kg of seed, herbicide H1 100 g a.i./ha pre-emergence
[13] = seed dressing with safener 1 g a.i./kg of seed, then herbicide H1 100 g a.i./ha pre-emergence
[14] = safener 250 g a.i./ha + herbicide H1 (isoxaflutole) 100 g a.i./ha, pre-emergence tank mix, visual scoring four weeks after application
[15] = safener 250 g a.i./ha + herbicide H2 40 g a.i./ha, post-emergence tank mix
[16] = herbicide H1 100 g a.i./ha alone, no safener, pre-emergence
[17] = herbicide H1 100 g a.i./ha pre-emergence, untreated seeds (no safener)
[18] = herbicide H2 40 g a.i./ha alone, no safener, post-emergence

| Compound | Safener action as % damage reduction in crop plants ([1]; post-emergence tank mix) [%] | % damage in ZEAMA [1, 8] [%] | Safener action as % damage reduction in crop plants [2, 9] [%] | % damage in ZEAMA [2, 10] [%] | Herbicidal action in SETVI (in %) (Setaria viridis [3]; [11]) [%] | Herbicidal action in CHEAL (in %) (Chenopodium album; [11]) [%] | Safener action as % damage reduction in crop plants [4, 12] [%] | % damage in GLXMA [4, 13] [%] | Safener action as % damage reduction in crop plants [5, 12] [%] | % damage in ZEAMA [5, 13] [%] | Safener action as % damage reduction in crop plants ([6]; pre-emergence tank mix) [%] | % damage in ZEAMA [6, 14] [%] | Herbicidal action as % damage in SETVI (Setaria viridis [7]; [15]) [%] | Herbicidal action as % damage in AMARE (Amaranthus retroflexus; [15]) [%] | further results |
| --- | --- | --- | --- | --- | --- | --- | --- | --- | --- | --- | --- | --- | --- | --- | --- |
| O=C(O)c1ccc(F)cc1O [Comp. 253, 4-fluorosalicylic acid] | 82 | 7 | 78 | 8 | 93 | 90 | 63 | 32 | 69 | 9 | 83 | 4 | 93 | 91 | – |
| O=C(O)c1ccc(O)cc1O [Comp. 588, 4-hydroxysalicylic acid] | 74 | 10 | 73 | 10 | 97 | 92 | 69 | 27 | 59 | 12 | 61 | 9 | 95 | 95 | – |
| CS(=O)(=O)c1cc(C(F)(F)F)ccc1C(=O)c1cnoc1C1CC1 [Herbicide H1, isoxaflutole, reference compound] | – | – | – | – | – | – | – | – | – | – | – | – | – | – | Herbicidal action in SETVI (in %) (Setaria viridis [3]; [16]): 92%; Herbicidal action in CHEAL (in %) (Chenopodium album; [16]): 90%; % damage in GLXMA [4, 17]: 87%; % damage in ZEAMA [5, 17]: 29%; % damage in ZEAMA ([6]; herbicide H1 100 g a.i./ha alone, no safener, pre-emergence, four weeks): 23% |
| COc1cc(OC)nc(NC(=O)NS(=O)(=O)c2cc(NC=O)ccc2C(=O)N(C)C)n1 [Herbicide H2, foramsulfuron, reference compound] | – | – | – | – | – | – | – | – | – | – | – | – | – | – | % damage in ZEAMA [1, 18]: 39%; % damage in ZEAMA ([2]; herbicide H2 40 g a.i./ha post-emergence, untreated seeds (no safener)): 37%; Herbicidal action as % damage in SETVI (Setaria viridis [7]; [18]): 93%; Herbicidal action as % damage in AMARE (Amaranthus retroflexus; [18]): 91% |
